In ChEMBL document CHEMBL5360519, “Chemical similarities and differences among inhibitors of nitric oxide synthase, arginase and dimethylarginine dimethylaminohydrolase-1: Implications for the design of novel enzyme inhibitors modulating the nitric oxide pathway” (Bioorg Med Chem, 2022):
Each block holds one molecule with its values, some of them ahead of it.

What was measured:
[1] = target: Nitric oxide synthase 1 (Homo sapiens, UniProt P29475); test: Inhibition of human nNOS assessed as inhibition constant measured after 5 mins
[2] = target: T1, N(G),N(G)-dimethylarginine dimethylaminohydrolase 1 (Homo sapiens, UniProt O94760); test: Inhibition of human DDAH1 expressed using SMTC as substrate assessed as inhibition constant measured after 5 mins
[3] = target: T1, N(G),N(G)-dimethylarginine dimethylaminohydrolase 1; test: Inhibition of human DDAH1 using SMTC as substrate by fluorimetric assay
[4] = target: T1, N(G),N(G)-dimethylarginine dimethylaminohydrolase 1; test: Inhibition of His-tagged human DDAH1 using SMTC as substrate assessed as inhibition constant
[5] = Upregulation of DDAH1 (unknown origin) transfected in HEK293T cells by Western blot analysis relative to control; format: functional, Homo sapiens, HEK-293T
[6] = species on record: Homo sapiens; test: Selectivity index, ratio of Ki for Inhibition of N-terminal His6-tagged human DDAH1 transfected in HEK293T cells to Ki for human arginase; format: cell-based
[7] = species on record: Homo sapiens; test: Selectivity index, ratio of Ki for Inhibition of N-terminal His6-tagged human DDAH1 transfected in HEK293T cells to Ki for human eNOS; format: cell-based
[8] = target: T1, N(G),N(G)-dimethylarginine dimethylaminohydrolase 1; test: Inhibition of N-terminal His6-tagged human DDAH1 expressed in Escherichia coli measured after 18 hrs

T1 sequence (O94760 whole entry): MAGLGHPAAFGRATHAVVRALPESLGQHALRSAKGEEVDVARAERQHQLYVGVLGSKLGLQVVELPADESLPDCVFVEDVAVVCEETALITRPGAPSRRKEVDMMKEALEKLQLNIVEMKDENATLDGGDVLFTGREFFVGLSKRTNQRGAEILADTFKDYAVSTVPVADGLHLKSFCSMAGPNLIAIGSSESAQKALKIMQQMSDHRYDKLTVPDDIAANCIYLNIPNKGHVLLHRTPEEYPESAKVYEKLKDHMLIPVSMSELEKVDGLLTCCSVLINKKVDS
Chain of Nitric oxide synthase 1 (P29475 whole entry): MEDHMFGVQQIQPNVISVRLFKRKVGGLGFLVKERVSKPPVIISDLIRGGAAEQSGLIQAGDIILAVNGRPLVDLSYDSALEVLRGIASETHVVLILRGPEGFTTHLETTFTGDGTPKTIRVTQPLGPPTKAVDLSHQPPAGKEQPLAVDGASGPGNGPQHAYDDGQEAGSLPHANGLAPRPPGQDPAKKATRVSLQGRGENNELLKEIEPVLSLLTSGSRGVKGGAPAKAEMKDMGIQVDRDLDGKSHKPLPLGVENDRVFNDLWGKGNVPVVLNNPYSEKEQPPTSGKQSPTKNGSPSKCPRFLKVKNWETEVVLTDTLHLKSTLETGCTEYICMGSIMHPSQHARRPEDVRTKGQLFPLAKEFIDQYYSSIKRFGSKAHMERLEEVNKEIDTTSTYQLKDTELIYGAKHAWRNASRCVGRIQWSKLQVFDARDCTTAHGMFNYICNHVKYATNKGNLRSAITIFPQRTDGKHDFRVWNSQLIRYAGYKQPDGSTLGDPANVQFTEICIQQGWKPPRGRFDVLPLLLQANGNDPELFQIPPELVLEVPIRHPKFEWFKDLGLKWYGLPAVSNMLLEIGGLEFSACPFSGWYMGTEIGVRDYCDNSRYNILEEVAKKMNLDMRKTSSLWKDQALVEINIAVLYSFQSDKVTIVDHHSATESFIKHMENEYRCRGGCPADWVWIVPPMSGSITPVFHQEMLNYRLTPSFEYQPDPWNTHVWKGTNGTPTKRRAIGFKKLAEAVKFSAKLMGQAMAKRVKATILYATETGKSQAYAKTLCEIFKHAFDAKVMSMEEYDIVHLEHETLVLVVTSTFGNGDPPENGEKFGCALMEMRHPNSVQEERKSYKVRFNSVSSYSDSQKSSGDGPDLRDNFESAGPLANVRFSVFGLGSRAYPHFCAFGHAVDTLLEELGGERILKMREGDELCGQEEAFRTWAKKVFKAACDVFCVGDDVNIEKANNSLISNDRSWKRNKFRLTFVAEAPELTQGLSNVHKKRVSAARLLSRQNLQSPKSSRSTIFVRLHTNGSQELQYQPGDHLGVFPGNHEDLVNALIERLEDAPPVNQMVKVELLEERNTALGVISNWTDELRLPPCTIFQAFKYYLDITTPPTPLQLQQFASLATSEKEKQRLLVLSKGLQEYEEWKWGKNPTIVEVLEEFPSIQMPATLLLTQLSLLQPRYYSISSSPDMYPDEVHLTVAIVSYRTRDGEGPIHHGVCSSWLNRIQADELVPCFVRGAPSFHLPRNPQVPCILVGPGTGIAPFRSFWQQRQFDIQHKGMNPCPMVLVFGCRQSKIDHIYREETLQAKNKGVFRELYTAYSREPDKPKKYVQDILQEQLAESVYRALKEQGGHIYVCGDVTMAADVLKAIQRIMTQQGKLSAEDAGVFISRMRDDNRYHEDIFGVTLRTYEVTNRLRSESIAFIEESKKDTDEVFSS

Ki [1]: > 1900 µM | Ki [2]: 110 µM | IC50 [3]: 9 µM
SMILES: N=C1Sc2ccccc2C2=NCCCN12

Ki [4]: 9 µM
SMILES: CC(C)(C)c1cc(C(F)(F)F)c2c(N)c(C(=O)Nc3nccs3)sc2n1

Ki [2]: 110 µM
SMILES: N=C(CCl)NCCC[C@H](N)C(=O)O
Activity [5]: 80% | Ratio Ki [6]: > 500 | Ratio Ki [7]: > 500

IC50 [8]: 50 µM
SMILES: CCCCCC(O)/C=C/C=O (centres undefined) [4-HYDROXYNON-2-ENAL]
